Reference: patent publication US8426437B2, “Pyrroloquinoline derivatives and their use as protein kinases inhibitors” (Pierre Fabre Medicament, priority 2005, dated 2013)
Where a name gives a salt, the structure may show the parent alone.

Target: T1, RET (Homo sapiens, UniProt P07949)
T1 construct: purchased Upstate 14-570MG
Test: Inhibition of RET kinase activity, recombinant RET method (Kinase-Glo)
Type: biochemical
Settings: RET 2 μg/ml, poly-EY4 substrate, 20 μM ATP, two hours at 30° C.
Method: The inhibition of the kinase activity of the compounds of the invention is assessed by measuring their IC50 on RET.
where: • Y is the value of the luminescence • X is the logarithm of the concentration of the compound • Bottom is the minimum Y value • Top is the maximum Y value • LogIC50 is the value of X when Y is 50% from Top—Bottom.
The quantity of RET required is 2 μg/ml.
The following buffer is used for dilution of RET: 20 mM MOPS/NaOH pH7.0, 1 mM EDTA, 5% glycerol, 0.01% Brij35 (Sigma B4184), 0.1% 2-mercaptoethanol, 1 mg/ml BSA (Sigma A3059-10G).
The dilution of the compounds of the invention is distributed so as to obtain a scale of final concentrations between 10 nM and 30 μM.
After incubation of the reaction mixture for two hours at 30° C., the level of ATP that remains is assayed using the Kinase-Glo Luminescent Kinase Assay (Promega #V6712) according to the conditions recommended by the supplier. The luminescence induced is read in a plate reader (Envision-Perkin Elmer).

T1 sequence (P07949 29-1114): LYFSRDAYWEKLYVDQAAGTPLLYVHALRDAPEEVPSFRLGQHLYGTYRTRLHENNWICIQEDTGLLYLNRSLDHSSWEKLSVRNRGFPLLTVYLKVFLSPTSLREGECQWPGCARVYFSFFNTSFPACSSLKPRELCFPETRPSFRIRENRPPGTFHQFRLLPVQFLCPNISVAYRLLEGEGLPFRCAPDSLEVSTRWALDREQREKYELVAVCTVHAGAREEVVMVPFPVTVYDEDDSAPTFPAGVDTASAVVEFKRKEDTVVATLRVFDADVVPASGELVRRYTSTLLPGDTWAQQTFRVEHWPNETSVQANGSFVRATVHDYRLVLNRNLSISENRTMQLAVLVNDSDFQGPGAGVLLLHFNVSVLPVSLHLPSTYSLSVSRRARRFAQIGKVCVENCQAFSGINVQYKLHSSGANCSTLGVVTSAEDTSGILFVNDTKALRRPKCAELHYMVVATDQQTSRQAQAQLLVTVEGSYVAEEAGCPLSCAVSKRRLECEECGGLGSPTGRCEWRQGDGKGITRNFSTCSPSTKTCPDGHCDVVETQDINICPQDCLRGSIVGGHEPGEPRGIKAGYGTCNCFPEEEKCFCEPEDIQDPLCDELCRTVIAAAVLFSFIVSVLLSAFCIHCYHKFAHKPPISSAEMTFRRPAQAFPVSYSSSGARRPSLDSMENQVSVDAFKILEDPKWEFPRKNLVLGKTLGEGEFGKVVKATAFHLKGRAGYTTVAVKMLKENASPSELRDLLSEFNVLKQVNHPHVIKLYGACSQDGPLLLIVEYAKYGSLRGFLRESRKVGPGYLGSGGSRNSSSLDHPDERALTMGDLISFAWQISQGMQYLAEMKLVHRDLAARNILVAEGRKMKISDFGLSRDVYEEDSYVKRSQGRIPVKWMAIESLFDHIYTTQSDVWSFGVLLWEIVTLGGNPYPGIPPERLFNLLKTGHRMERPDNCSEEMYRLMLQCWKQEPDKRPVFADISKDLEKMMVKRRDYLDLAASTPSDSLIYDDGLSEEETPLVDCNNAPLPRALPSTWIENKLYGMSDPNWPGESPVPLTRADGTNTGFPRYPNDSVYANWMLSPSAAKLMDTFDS

| SMILES | IC50 [µM] |
| --- | --- |
| CCCOC(=O)c1c[nH]c2c(=O)[nH]c3ccc(S(=O)(=O)N(C[C@@H](C)NC(=O)OC(C)(C)C)C4CC4)cc3c12 [Compound 154, (R)-8-[(2-tert-Butoxycarbonylamino-propyl)-cyclopropyl-sulfamoyl]-4-oxo-4,5-dihydro-3H-pyrrolo[2,3-c]quinoline-1-propyl carboxylate] | 1 to 10 |
| CCOC(=O)c1c[nH]c2c(=O)[nH]c3ccc(/C=C/C(=O)NCCC(=O)OC)cc3c12 [Compound 69, 8-[2-(2-Methoxycarbonyl-ethylcarbamoyl)-vinyl]-4-oxo-4,5-dihydro-3H-pyrrolo[2,3-c]quinoline-1-ethyl carboxylate] | 1 to 10 |
| CC(C)OC(=O)c1c[nH]c2c(=O)[nH]c3ccccc3c12 [Compound 78, 4-Oxo-4,5-dihydro-3H-pyrrolo[2,3-c]quinoline-1-carboxylate isopropyl] | 1 to 10 |
| CCOC(=O)c1c[nH]c2c(=O)[nH]c3ccc(NS(=O)(=O)c4ccccc4Cl)cc3c12 [Compound 42, 8-(2-Chloro-benzenesulfonylamino)-4-oxo-4,5-dihydro-3H-pyrrolo[2,3-c]quinoline-1-ethyl carboxylate] | 10 to 100 |
| CC(C)COC(=O)c1c[nH]c2c(=O)[nH]c3ccc(I)cc3c12 [Compound 212, 8-Iodo-4-oxo-4,5-dihydro-3H-pyrrolo[2,3-c]quinoline-1-isobutyl carboxylate] | 1 to 10 |
| CNC(=O)c1c[nH]c2c(=O)[nH]c3ccccc3c12 [Compound 88, N-(Methyl)-4-oxo-4,5-dihydro-3H-pyrrolo[2,3-c]quinoline-1-carboxamide] | 10 to 100 |
| CCCOC(=O)c1c[nH]c2c(=O)[nH]c3ccc(S(=O)(=O)N(C[C@H]4CCCN4C(=O)OC(C)(C)C)C4CC4)cc3c12 [Compound 147, (R)-8-[(1-tert-Butoxycarbony-pyrrolidin-2-ylmethyl)-cyclopropyl-sulfamoyl]-4-oxo-4,5-dihydro-3H-pyrrolo[2,3-c]quinoline-1-propyl carboxylate] | 1 to 10 |
| CN(C(=O)OC(C)(C)C)C1CCN(S(=O)(=O)c2ccc3[nH]c(=O)c4[nH]cc(C(=O)O)c4c3c2)C1 (stereo not drawn) [Compound 170, 8-[3-(tert-Butoxycarbonyl-methyl-amino)-pyrrolidine-1-sulfonyl]-4-oxo-4,5-dihydro-3H-pyrrolo[2,3-c]quinoline-1-carboxylic acid] | 10 to 100 |
| CCOC(=O)c1c[nH]c2c(=O)[nH]c3ccc(NC(C)=O)cc3c12 [Compound 61, 8-Acetylamino-4-oxo-4,5-dihydro-3H-pyrrolo[2,3-c]quinoline-1 ethyl carboxylate] | 1 to 10 |
| O=C(NCCc1c[nH]c2ccccc12)c1c[nH]c2c(=O)[nH]c3ccccc3c12 [Compound 84, N-[2-(1H-Indol-3-yl)-ethyl]-4-oxo-4,5-dihydro-3H-pyrrolo[2,3-c]quinoline-1-carboxamide] | 10 to 100 |
| COC(=O)c1c[nH]c2c(=O)[nH]c3ccccc3c12 [Compound 73, 4-Oxo-4,5-dihydro-3H-pyrrolo[2,3-c]quinoline-1-methyl carboxylate] | 1 to 10 |
| CCOC(=O)c1c[nH]c2c(=O)[nH]c3ccc(-c4ccccc4)cc3c12 [Compound 228, 4-Oxo-8-phenyl-4,5-dihydro-3H-pyrrolo[2,3-c]quinoline-1-ethyl carboxylate] | 1 to 10 |
| O=C(OC1CCCC1)c1c[nH]c2c(=O)[nH]c3ccc(I)cc3c12 [Compound 211, 8-Iodo-4-oxo-4,5-dihydro-3H-pyrrolo[2,3-c]quinoline-1-cyclopentyl carboxylate] | 1 to 10 |

Now from value to compound:

| IC50 [µM] | SMILES |
| --- | --- |
| 0.1 to 1 | CCOC(=O)c1c[nH]c2c(=O)[nH]c3ccc(C#CC(C)(C)O)cc3c12 [Compound 204, 8-(3-Hydroxy-3-methyl-but-1-ynyl)-4-oxo-4,5-dihydro-3H-pyrrolo[2,3-c]quinoline-1-ethyl carboxylate] |
| 0.1 to 1 | CCOC(=O)c1c[nH]c2c(=O)[nH]c3ccc(S(=O)(=O)Nc4cccc(C)c4)cc3c12 [Compound 5, 4-Oxo-8-m-tolylsulfamoyl-4,5-dihydro-3H-pyrrolo[2,3-c]quinoline-1-ethyl carboxylate] |
| 0.1 to 1 | CCOC(=O)c1c[nH]c2c(=O)[nH]c3ccc(S(=O)(=O)C4CCCCC4)cc3c12 [Compound 197, 8-Cyclohexanesulfonyl-4-oxo-4,5-dihydro-3H-pyrrolo[2,3-c]quinoline-1-ethyl carboxylate] |
| 0.1 to 1 | CCOC(=O)c1c[nH]c2c(=O)[nH]c3ccc(-c4cccc(NS(C)(=O)=O)c4)cc3c12 [Compound 235, 8-(3-Methanesulfonylaminophenyl)-4-oxo-4,5-dihydro-3H-pyrrolo[2,3-c]quinoline-1-ethyl carboxylate] |
| 0.1 to 1 | CCOC(=O)c1c[nH]c2c(=O)[nH]c3ccc(-c4ccc5c(c4)OCCO5)cc3c12 [Compound 248, 8-(2,3-Dihydro-benzo[1,4]dioxin-6-yl)-4-oxo-4,5-dihydro-3H-pyrrolo[2,3-c]quinoline-1-ethyl carboxylate] |
| < 0.1 | CCCOC(=O)c1c[nH]c2c(=O)[nH]c3ccc(S(=O)(=O)N(C)C4CC4)cc3c12 [Compound 125, 8-(Cyclopropyl-methyl-sulfamoyl)-4-oxo-4,5-dihydro-3H-pyrrolo[2,3-c]quinoline-1-propyl carboxylate] |
| 0.1 to 1 | CCOC(=O)c1c[nH]c2c(=O)[nH]c3ccc(S(=O)(=O)N(C)Cc4ccccc4)cc3c12 [Compound 24, 8-(Benzyl-methyl-sulfamoyl)-4-oxo-4,5-dihydro-3H-pyrrolo[2,3-c]quinoline-1-ethyl carboxylate] |
| 0.1 to 1 | CCCOC(=O)c1c[nH]c2c(=O)[nH]c3ccc(S(=O)(=O)N(C)CC4OCCO4)cc3c12 [Compound 129, 8-[1,3]Dioxolan-2-ylmethyl-methyl-sulfamoyl)-4-oxo-4,5-dihydro-3H-pyrrolo[2,3-c]quinoline-1-propyl carboxylate] |
| 0.1 to 1 | CCOC(=O)c1c[nH]c2c(=O)[nH]c3ccc(NS(=O)(=O)c4ccc(Cl)s4)cc3c12 [Compound 57, 8-(5-Chloro-thiophene-2-sulfonylamino)-4-oxo-4,5-dihydro-3H-pyrrolo[2,3-c]quinoline-1-ethyl carboxylate] |
| 0.1 to 1 | CCOC(=O)c1c[nH]c2c(=O)[nH]c3ccc(S(=O)(=O)Nc4ccc(Cl)cc4)cc3c12 [Compound 11, 8-(4-Chlorophenylsulfamoyl)-4-oxo-4,5-dihydro-3H-pyrrolo[2,3-c]quinoline-1-ethyl carboxylate] |
| 0.1 to 1 | CCCOC(=O)c1c[nH]c2c(=O)[nH]c3ccc(S(=O)(=O)N(C)CCSC)cc3c12 [Compound 135, 8-[Methyl-(2-methylsulfanyl-ethyl)-sulfamoyl]-4-oxo-4,5-dihydro-3H-pyrrolo[2,3-c]quinoline-1-propyl carboxylate] |
| 0.1 to 1 | CCCOC(=O)c1c[nH]c2c(=O)[nH]c3cc(F)c(S(=O)(=O)N(C)C4CC4)cc3c12 [Compound 187, 8-(Cyclopropyl-methyl-sulfamoyl)-7-fluoro-4-oxo-4,5-dihydro-3H-pyrrolo[2,3-c]quinoline-1-propyl carboxylate] |
| 0.1 to 1 | CCOC(=O)c1c[nH]c2c(=O)[nH]c3ccc(S(=O)(=O)Nc4cccc(O)c4)cc3c12 [Compound 15, 8-(3-Hydroxy-phenylsulfamoyl)-4-oxo-4,5-dihydro-3H-pyrrolo[2,3-c]quinoline-1-ethyl carboxylate] |
| 0.1 to 1 | CCCOC(=O)c1c[nH]c2c(=O)[nH]c3ccc(S(=O)(=O)N(Cc4c[nH]cn4)C4CC4)cc3c12 [Compound 143, 8-[Cyclopropyl-(1H-imidazol-4-ylmethyl)-sulfamoyl]-4-oxo-4,5-dihydro-3H-pyrrolo[2,3-c]quinoline-1-propyl carboxylate hydrochloride] |
| < 0.1 | CCOC(=O)c1c[nH]c2c(=O)[nH]c3ccc(S(=O)(=O)N(C)c4ccc(F)cc4)cc3c12 [Compound 13, 8-[(4-Fluorophenyl)-N-methyl-sulfamoyl)-4-oxo-4,5-dihydro-3H-pyrrolo[2,3-c]quinoline-1-ethyl carboxylate] |
| 0.1 to 1 | CCCOC(=O)c1c[nH]c2c(=O)[nH]c3ccc(S(=O)(=O)N(CCO)CCO)cc3c12 [Compound 176, 8-[bis-(2-Hydroxy-ethyl)-sulfamoyl]-4-oxo-4,5-dihydro-3H-pyrrolo[2,3-c]quinoline-1-propyl carboxylate] |
| 0.1 to 1 | CCOC(=O)c1c[nH]c2c(=O)[nH]c3cc(Cl)c(-c4cccc(S(C)(=O)=O)c4)cc3c12 [Compound 257, 7-Chloro-8-(3-methanesulfonyl-phenyl)-4-oxo-4,5-dihydro-3H-pyrrolo[2,3-c]quinoline-1-ethyl carboxylate] |
| 0.1 to 1 | CCOC(=O)c1c[nH]c2c(=O)[nH]c3ccc(S(=O)(=O)NC4CCCCCC4)cc3c12 [Compound 31, 8-Cycloheptylsulfamoyl-4-oxo-4,5-dihydro-3H-pyrrolo[2,3-c]quinoline-1-ethyl carboxylate] |
| 0.1 to 1 | CCOC(=O)c1c[nH]c2c(=O)[nH]c3ccc(-c4cccc5ccccc45)cc3c12 [Compound 249, 8-Naphthalen-1-yl-4-oxo-4,5-dihydro-3H-pyrrolo[2,3-c]quinoline-1-ethyl carboxylate] |
| 0.1 to 1 | CCOC(=O)c1c[nH]c2c(=O)[nH]c3ccc(-c4cc(S(C)(=O)=O)ccc4N)cc3c12 [Compound 251, 8-(2-Amino-5-methanesulfonyl-phenyl)-4-oxo-4,5-dihydro-3H-pyrrolo[2,3-c]quinoline-1-ethyl carboxylate] |
